Data set [1] addresses T1, IKK epsilon/TBK1 (Homo sapiens, UniProt Q14164+Q9UHD2).
T1 sequence (Q14164 whole entry): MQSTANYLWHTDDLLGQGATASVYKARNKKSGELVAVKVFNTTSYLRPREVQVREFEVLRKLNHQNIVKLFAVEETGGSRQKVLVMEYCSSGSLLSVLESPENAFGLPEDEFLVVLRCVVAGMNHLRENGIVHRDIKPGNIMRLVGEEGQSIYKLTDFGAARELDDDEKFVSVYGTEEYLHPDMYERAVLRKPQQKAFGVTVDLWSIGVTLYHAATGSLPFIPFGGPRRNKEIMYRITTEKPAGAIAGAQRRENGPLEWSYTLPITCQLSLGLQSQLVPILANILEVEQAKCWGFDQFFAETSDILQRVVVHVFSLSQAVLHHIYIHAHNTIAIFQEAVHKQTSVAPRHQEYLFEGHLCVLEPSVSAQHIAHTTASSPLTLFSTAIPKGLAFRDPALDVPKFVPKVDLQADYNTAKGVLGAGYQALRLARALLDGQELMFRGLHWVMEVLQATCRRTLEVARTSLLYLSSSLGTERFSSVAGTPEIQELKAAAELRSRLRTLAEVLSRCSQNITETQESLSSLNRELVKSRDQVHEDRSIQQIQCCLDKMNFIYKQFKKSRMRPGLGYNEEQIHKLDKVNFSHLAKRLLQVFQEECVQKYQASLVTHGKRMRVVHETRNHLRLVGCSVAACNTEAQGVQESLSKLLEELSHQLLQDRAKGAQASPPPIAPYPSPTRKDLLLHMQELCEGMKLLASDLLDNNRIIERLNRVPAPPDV
T1 sequence (Q9UHD2 whole entry): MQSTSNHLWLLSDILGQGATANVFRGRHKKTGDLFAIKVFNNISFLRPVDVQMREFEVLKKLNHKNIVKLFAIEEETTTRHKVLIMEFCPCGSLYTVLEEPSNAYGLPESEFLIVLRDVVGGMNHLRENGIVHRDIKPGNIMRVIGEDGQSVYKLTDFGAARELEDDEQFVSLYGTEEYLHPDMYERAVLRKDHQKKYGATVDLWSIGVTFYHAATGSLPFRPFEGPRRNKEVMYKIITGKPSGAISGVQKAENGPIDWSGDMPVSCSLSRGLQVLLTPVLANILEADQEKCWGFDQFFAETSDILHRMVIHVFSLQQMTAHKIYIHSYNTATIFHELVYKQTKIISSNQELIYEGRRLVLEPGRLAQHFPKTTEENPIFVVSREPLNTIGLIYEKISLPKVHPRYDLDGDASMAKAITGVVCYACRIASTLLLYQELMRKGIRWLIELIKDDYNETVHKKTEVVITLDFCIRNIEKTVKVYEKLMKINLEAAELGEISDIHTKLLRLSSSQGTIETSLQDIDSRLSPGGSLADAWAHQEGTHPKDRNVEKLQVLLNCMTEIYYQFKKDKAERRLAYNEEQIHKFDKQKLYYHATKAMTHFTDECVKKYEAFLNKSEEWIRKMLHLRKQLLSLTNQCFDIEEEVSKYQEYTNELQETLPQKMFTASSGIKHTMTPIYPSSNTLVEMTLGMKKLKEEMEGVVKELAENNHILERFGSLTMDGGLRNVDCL
The experiment in a line: Inhibition of IKKepsilon/TBK1 in human MDB-MB-231 cells transduced with lentiviral vector expressing human IRF3 assessed as decrease in poly(I:C)-stimulated IRF3 phosphorylation at S385/386 residues preincubated for 1 hr followed by poly(I:C) addition and measured after 1 hr. Format: cell-based.

Data set [2] addresses T2, Receptor-type tyrosine-protein kinase FLT3 (Homo sapiens, UniProt P36888).
T2 sequence (P36888 whole entry): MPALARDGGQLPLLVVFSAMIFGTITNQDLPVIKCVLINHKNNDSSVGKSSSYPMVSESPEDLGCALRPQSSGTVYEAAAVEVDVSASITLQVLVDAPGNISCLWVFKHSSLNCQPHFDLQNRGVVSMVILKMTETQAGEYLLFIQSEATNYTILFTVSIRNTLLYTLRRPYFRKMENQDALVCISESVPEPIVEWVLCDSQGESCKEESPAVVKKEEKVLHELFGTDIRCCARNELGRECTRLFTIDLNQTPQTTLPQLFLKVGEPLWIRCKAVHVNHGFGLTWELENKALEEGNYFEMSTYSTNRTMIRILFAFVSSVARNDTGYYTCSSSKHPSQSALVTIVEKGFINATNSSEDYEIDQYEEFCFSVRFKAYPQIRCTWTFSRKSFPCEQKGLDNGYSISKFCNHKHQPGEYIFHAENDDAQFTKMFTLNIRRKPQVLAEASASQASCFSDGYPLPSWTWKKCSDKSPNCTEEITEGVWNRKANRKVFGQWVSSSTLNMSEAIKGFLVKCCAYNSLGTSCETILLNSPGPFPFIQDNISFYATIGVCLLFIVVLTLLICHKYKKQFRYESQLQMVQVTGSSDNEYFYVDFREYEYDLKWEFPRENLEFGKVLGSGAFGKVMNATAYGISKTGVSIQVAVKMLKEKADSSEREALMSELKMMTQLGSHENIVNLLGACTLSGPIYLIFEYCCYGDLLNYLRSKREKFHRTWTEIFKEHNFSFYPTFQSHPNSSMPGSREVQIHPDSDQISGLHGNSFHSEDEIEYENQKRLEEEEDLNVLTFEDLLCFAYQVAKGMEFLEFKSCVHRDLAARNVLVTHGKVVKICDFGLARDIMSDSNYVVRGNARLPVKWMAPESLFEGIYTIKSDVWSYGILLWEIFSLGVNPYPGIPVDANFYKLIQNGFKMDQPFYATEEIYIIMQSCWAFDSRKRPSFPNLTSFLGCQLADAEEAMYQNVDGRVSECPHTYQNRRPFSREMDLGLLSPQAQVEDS
Description: Inhibition of recombinant human N-terminal GST-tagged FLT3 (564 to end residues) expressed in sf21 cells using biotin labelled Ahx-GGEEEEYFELVKKKK peptide as substrate preincubated with enzyme for 15 mins followed by substrate addition and further incubated for 45 mins in presence of 10 uM of ATP by TR-FRET assay. On the technique in general: In TR-FRET formats the signal depends on donor and acceptor labels being close together.

Data set [3] addresses Ribosomal protein S6 kinase alpha-6 (Homo sapiens, UniProt Q9UK32). Description: Inhibition of recombinant full length human His6-tagged RSK4 expressed in baculovirus infected sf21 cells using biotin labelled Ahx-KKLNRTLSFAEPG peptide as substrate preincubated with enzyme for 15 mins followed by substrate addition and further incubated for 30 mins in presence of 10 uM of ATP by TR-FRET assay.

Data set [4] concerns the target CDK9/cyclin T1 (Homo sapiens, UniProt P50750). Description: Inhibition of recombinant full length human His-tagged CDK9/CyclinT1 expressed in baculovirus expression system using biotin-labelled Ttds-YISPLKSPYKISEG peptide as substrate preincubated with enzyme for 15 mins followed by substrate addition and further incubated for 25 mins presence of 10 uM of ATP by TR-FRET assay.

Data set [5] relates to SK-MEL-2. Description: Antiproliferative activity against human SK-MEL-2 cells harboring NRAS/TP53 mutation assessed as reduction in cell viability after 96 hrs by CellTiter-Glo luminescence assay. Format: functional, cell-based. To be noted: SK-MEL-2, 96 h. For orientation: Cellular ATP, detected with luciferase, serves as a proxy for viable cell number.
The target in data set [6] is T3, Serine/threonine-protein kinase TBK1 (Homo sapiens, UniProt Q9UHD2).
T3 sequence (Q9UHD2 whole entry): T1 sequence (Q9UHD2 whole entry)
Description: Inhibition of recombinant full length human N-terminal His-tagged TBK1 using biotin-labelled Ahx-GDEDFSSFAEPG peptide as substrate preincubated with enzyme for 15 mins followed by substrate addition and further incubated for 30 mins in presence of 1 mM of ATP by TR-FRET assay.

Data set [7] has as its system ACHN. Description: Antiproliferative activity against human ACHN cells harboring CDKN2A mutation assessed as reduction in cell viability after 96 hrs by CellTiter-Glo luminescence assay. Format: functional, cell-based.
Data set [8] addresses T4, Inhibitor of nuclear factor kappa-B kinase subunit epsilon (Homo sapiens, UniProt Q14164).
T4 sequence (Q14164 whole entry): T1 sequence (Q14164 whole entry)
The experiment in a line: Inhibition of recombinant full length human C-terminal GST-tagged IKKepsilon expressed in baculovirus expression system using biotin-labelled Ahx-GDEDFSSFAEPG peptide as substrate preincubated with enzyme for 15 mins followed by substrate addition and further incubated for 30 mins in presence of 10 uM of ATP by TR-FRET assay.

Data set [9] concerns the target T3, Serine/threonine-protein kinase TBK1.
Data set [10] in a line: Efflux ratio of apparent permeability across basolateral to apical membrane over apical to basolateral membrane in human Caco2 cells. To be noted: Caco-2. It counts as ADME, cell-based. For orientation: Caco-2 cells form a polarised layer with tight junctions and transporters.
The nature of data set [11]: Apparent permeability of compound across basal to apical membrane in human Caco2 cells at 2 uM in DMSO after 2 hrs by LC-MS/MS analysis. Format: ADME, cell-based. To be noted: Caco-2.
The nature of data set [12]: Apparent permeability of compound across apical to basal membrane in human Caco2 cells at 2 uM in DMSO after 2 hrs by LC-MS/MS analysis. Format: ADME, cell-based. To be noted: Caco-2.

Chain of CDK9/cyclin T1 (O60563 whole entry): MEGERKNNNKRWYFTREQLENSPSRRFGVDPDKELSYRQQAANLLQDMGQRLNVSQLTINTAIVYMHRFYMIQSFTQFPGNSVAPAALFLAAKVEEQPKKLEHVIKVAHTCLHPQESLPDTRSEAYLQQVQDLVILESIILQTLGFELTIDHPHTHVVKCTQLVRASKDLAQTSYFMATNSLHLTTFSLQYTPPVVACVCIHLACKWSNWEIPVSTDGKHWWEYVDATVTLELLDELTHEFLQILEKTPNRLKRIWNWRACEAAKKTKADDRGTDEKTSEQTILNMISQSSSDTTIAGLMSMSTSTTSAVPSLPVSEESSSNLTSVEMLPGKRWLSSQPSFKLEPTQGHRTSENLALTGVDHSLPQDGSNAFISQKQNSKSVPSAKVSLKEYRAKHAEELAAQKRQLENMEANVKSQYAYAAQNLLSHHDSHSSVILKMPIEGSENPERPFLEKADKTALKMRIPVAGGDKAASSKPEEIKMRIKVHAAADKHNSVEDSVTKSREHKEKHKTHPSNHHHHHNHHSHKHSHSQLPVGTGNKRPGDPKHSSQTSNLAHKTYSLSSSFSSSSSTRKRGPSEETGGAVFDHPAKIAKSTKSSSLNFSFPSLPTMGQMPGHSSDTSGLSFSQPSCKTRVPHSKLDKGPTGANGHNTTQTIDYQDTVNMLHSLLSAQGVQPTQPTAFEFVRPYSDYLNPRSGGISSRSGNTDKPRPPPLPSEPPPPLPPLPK
Chain of CDK9/cyclin T1 (P50750 whole entry): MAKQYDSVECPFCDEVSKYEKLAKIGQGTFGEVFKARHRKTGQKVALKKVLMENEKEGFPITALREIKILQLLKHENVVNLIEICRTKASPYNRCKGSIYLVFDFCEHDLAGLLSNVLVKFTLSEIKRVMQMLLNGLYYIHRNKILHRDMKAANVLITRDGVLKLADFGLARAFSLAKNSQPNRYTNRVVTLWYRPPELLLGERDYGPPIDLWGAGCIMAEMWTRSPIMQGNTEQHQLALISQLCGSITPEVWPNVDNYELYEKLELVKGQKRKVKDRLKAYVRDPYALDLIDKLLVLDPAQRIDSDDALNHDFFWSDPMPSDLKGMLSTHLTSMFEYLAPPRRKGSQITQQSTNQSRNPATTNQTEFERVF
Chain of Ribosomal protein S6 kinase alpha-6 (Q9UK32 whole entry): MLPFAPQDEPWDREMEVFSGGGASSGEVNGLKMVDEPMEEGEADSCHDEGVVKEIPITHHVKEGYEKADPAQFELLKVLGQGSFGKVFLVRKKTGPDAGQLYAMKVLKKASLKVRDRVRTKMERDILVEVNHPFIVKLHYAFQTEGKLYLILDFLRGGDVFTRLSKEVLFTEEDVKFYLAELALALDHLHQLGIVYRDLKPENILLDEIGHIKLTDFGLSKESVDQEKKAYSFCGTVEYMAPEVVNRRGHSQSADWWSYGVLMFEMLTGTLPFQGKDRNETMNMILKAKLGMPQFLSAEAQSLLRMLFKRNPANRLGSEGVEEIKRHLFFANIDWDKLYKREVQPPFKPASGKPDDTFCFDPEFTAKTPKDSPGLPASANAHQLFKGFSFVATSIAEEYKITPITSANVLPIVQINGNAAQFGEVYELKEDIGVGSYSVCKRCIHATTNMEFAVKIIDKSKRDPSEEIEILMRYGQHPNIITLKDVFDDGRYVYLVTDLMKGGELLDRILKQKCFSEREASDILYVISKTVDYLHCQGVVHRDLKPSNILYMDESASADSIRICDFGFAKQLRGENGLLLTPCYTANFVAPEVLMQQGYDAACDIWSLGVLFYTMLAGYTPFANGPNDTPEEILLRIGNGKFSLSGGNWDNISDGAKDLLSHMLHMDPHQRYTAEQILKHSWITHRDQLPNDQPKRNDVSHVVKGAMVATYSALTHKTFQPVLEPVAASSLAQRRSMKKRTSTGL

As for `CN(C)c1cc(-c2ccc3nc(Nc4cc(CN5CCN(C(=O)CC(F)(F)F)CC5)ccn4)[nH]c3c2)ccn1`, the IC50 in data set [1] came to 1260 nM; in data set [2], 1 nM; in data set [3], 2830 nM; in data set [4], 263 nM; in data set [5] it was 337 nM; in [6], 388 nM. Further, the half-maximal inhibitory concentration (IC50) in data set [7] amounted to 2240 nM; in data set [8], 35 nM.
As to `CN(C)c1ncnc(-c2ccc3nc(Nc4cc(CN5CCN(C(=O)CC(F)(F)F)CC5)ccn4)[nH]c3c2)c1Cl` [BAY-440], the IC50 in data set [1] was 3890 nM; in data set [2], 536 nM; in data set [3], 6110 nM; in [5], 6330 nM; in data set [6], over 20000 nM; in [7] it was 1110 nM. Also, in data set [8], the IC50 was 1280 nM.
Take `N#Cc1ccc2nc(Nc3cc(CN4CCN(C(=O)CC(F)(F)F)CC4)ccn3)[nH]c2c1`: the concentration for half-maximal inhibition (IC50) in data set [1] was determined as 2030 nM; in [4], 5 nM; in data set [9] it was 29 nM; in [6] it was 618 nM; in [8], 17 nM. In addition, the efflux ratio in data set [10] was determined as 8.3. In [11], the basolateral-to-apical permeability (Papp B→A) at 2 h, 2 µM amounted to 26.8 ×10⁻⁶ cm/s. In addition, the apparent permeability from apical to basolateral (Papp A→B) at 2 h, 2 µM in data set [12] is 3.2 ×10⁻⁶ cm/s.
`Cc1cc(-c2ccc3nc(Nc4cc(CN5CCN(C(=O)CC(F)(F)F)CC5)ccn4)[nH]c3c2)ncn1`: the half-maximal inhibitory concentration (IC50) amounted to 9 nM in data set [2]; 320 nM in [4]; 172 nM in data set [5]; 15300 nM in data set [7]; 16 nM in data set [8].
Turning to `Cc1noc(-c2ccc3nc(Nc4cc(CN5CCN(C(=O)C6CC6)CC5)ccn4)[nH]c3c2)n1`, the half-maximal inhibitory concentration (IC50) in data set [9] came out at 148 nM; in data set [6], 1270 nM; in data set [8], 154 nM. The efflux ratio in [10] was found to be 2.2. For the same compound, the Papp B→A at 2 h, 2 µM in [11] was 15.1 ×10⁻⁶ cm/s. The apical-to-basolateral permeability (Papp A→B) at 2 h, 2 µM in data set [12] worked out at 6.8 ×10⁻⁶ cm/s.
Turning to `Cc1cc(-c2ccc3nc(Nc4cc(CN5CCN(C(=O)CC(F)(F)F)CC5)ccn4)[nH]c3c2)ccn1`, the IC50 in data set [1] was 840 nM; in data set [2], 0.3 nM; in data set [3], 1060 nM; in data set [4] it was 71 nM; in data set [6], 391 nM; in data set [8] it was 15 nM.
Turning to `Cc1noc(-c2ccc3nc(Nc4cc(CN5CCN(C(=O)CC6CC6)CC5)ccn4)[nH]c3c2)n1`, the concentration for half-maximal inhibition (IC50) in data set [6] stood at 1920 nM; in [8], 226 nM. Also, the efflux ratio in data set [10] came out at 2.4. In [11], the apparent permeability from basolateral to apical (Papp B→A) at 2 h, 2 µM turned out to be 12.4 ×10⁻⁶ cm/s. Besides, in data set [12], the apical-to-basolateral permeability (Papp A→B) at 2 h, 2 µM is 5.2 ×10⁻⁶ cm/s.
Consider `Cc1noc(-c2ccc3nc(Nc4cc([C@H](C)N5CCN(C(=O)CC(F)(F)F)CC5)ccn4)[nH]c3c2)n1`, for which the IC50 in data set [1] came to 3020 nM; in data set [9], 106 nM; in [6] it was 2490 nM; in data set [8] it was 200 nM. Also, the efflux ratio in data set [10] amounted to 0.7. In data set [11], the basolateral-to-apical permeability (Papp B→A) at 2 h, 2 µM was found to be 7.9 ×10⁻⁶ cm/s. In data set [12], the Papp A→B at 2 h, 2 µM is 11.4 ×10⁻⁶ cm/s.
For the compound `CC(C)Cc1noc(-c2ccc3nc(Nc4cc(CN5CCN(C(=O)CC(F)(F)F)CC5)ccn4)[nH]c3c2)n1`, the IC50 was 173 nM in data set [2], over 20000 nM in data set [4], over 20000 nM in [6] and 89 nM in [8].
As for `Cn1cc(-c2ccc3nc(Nc4cc(CN5CCN(C(=O)CC(F)(F)F)CC5)ccn4)[nH]c3c2)cn1`, the IC50 in [1] was determined as 1960 nM; in data set [2] it was 11 nM; in [3], 11200 nM; in [4], 240 nM; in data set [6], 2100 nM; in data set [8], 197 nM.
Consider `O=C(CC(F)(F)F)N1CCN(Cc2ccnc(Nc3nc4ccc(-c5nc(C6CC6)no5)cc4[nH]3)c2)CC1`, for which the IC50 in [1] is over 30000 nM; in [2] it was 69 nM; in data set [9], 58 nM; in data set [6], over 20000 nM; in data set [8] it was 41 nM.

The term IC50 denotes the midpoint of a concentration-inhibition curve. By efflux ratio is commonly meant a quotient of directional permeabilities that is used to spot active efflux. As usually defined, the Papp B→A is how fast a substance crosses the layer from the basolateral side. One may read the Papp A→B as how fast a substance crosses the layer from the apical side.

The record behind these values is ChEMBL document CHEMBL4376867 (J Med Chem, 2020).
